Reference: PubChem BioAssay AID1963871 (Molecular Pharmacology Branch, DTP, NCI, 2024)

Test system: KRAS-mutant PDC multicell tumor spheroid viability
Assay: Anticancer human tumor 521955-158-R2-J5-PDC patient-derived pancreatic carcinoma cell line growth inhibition [KRAS2]
Conditions: for viability, T/C: stronger effect = lower value
Description: Multicellular complex tumor spheroid response to RAS pathway inhibitors in combination with a targeted agents in patient-derived cell lines with oncogenic KRAS variants from multiple cancer types
A high-throughput screen of multi-cell type tumor spheroids was designed to identify active combinations of targeted small molecules and KRAS pathway inhibitors. Complex spheroids include a stromal component modeled by human endothelial cells (HUVEC) and fibroblasts modeled by human mesenchymal stem cells (MSCs). The concentration ranges selected for each drug and investigational agent were based upon clinically achievable concentrations if the clinical Cmax of the agent was known.
Compounds. The drugs and investigational agents: BI-3406 (NSC825286), BAY-293 (NSC824723), batoprotafib (TNO155; NSC825523), sotorasib (AMG 510; NSC818433), MRTX1257 (NSC819558), elimusertib (BAY 1895344; NSC800525), molibresib (GSK525762; NSC774829), temuterkib (LY3214996; NSC803410), venetoclax (NSC766270), alisertib (NSC759677), olaparib (NSC753686), talazoparib (NSC767125), erdafitinib (NSC781556), ipatasertib (NSC767898), cabozantinib (NSC761068), nintedanib (NSC756659), abemaciclib (NSC768073), docetaxel (NSC628503), trametinib (NSC758246), and sapanisertib (NSC764658) were obtained from the National Cancer Institute (NCI) Developmental Therapeutics Program Chemical Repository. The FDA-approved anticancer drug set is available from the Developmental Therapeutics Program. […] The stock solutions were prepared in dimethyl sulfoxide (DMSO, Sigma-Aldrich, St. Louis, MO, cat. D2650) at 800-fold the tested concentration and stored at -70 degrees C prior to their use. All drugs and investigational agents were tested over a range starting from a high concentration at or near the clinical Cmax and decreasing in half-log increments. If the clinical Cmax for an agent had not been determined, the highest concentration tested was 10 microM.
Cell Culture. All cells were maintained in an incubator at 37 degrees C and 5% CO2 with 95% humidity. The PDC lines were cultured according to standard operating procedures established by the NCI PDMR (https://pdmr.cancer.gov/sops/default.htm). Briefly, all PDCs were thawed and cultured in Matrigel-coated flasks prepared with a working solution of 1X Ham's F-12 nutrient mix, without supplementation (Invitrogen, Waltham, MA, cat. 11765054), 100 U/mL penicillin-streptomycin (Invitrogen, cat. 15140122), and 2.5% Matrigel (Corning Inc., Corning, NY, cat. 354248) for the first three passages. All PDCs were cultured in complete DMEM/F-12 media containing advanced DMEM/F-12 (Invitrogen, cat. 12634028), 4.9% defined fetal bovine serum, heat inactivated (HyClone Laboratories Inc., Logan, UT, cat. SH30070.03HI), 389 ng/mL hydrocortisone (Sigma-Aldrich, cat. H4001), 9.7 ng/mL human EGF recombinant protein (Invitrogen, cat. PHG0313), 23.4 microg/mL adenine (Sigma-Aldrich, cat. A2786), 97.3 U/mL penicillin-streptomycin (Invitrogen, cat. 15140122), 1.9 mM L-glutamine (Invitrogen, cat. 25030081), and 9.7 microM Y-27632 dihydrochloride (Tocris Bioscience, Bristol, United Kingdom, cat. 1254). The PDCs were cultured in complete DMEM/F12 media without 9.7 microM Y-27632 dihydrochloride for at least two passages prior to the screen. The established cell line HOP-62 was cultured in RPMI 1640 medium, HEPES (Invitrogen, cat. 22400105) with 10% defined fetal bovine serum (HyClone Laboratories Inc., cat. SH30070.03) and 2 mM L-glutamine (Invitrogen, cat. 25030081). The pooled donor HUVEC were cultured in endothelial cell growth medium 2 (PromoCell, Heidelberg, Germany, cat. C-22011) and the hMSC were cultured in mesenchymal stem cell growth medium 2 (PromoCell, cat. C-28009). For all experiments, HUVEC and hMSC were used at passages </=5, while the malignant cell lines were used at passages </=15. […]

[1] = compound alone, run of 08/26/2021
[2] = compound alone, run of 09/02/2021
[3] = curve of first compound, second compound 0.1 µM
[4] = curve of first compound, second compound 0.316 µM
[5] = curve of first compound, second compound 1 µM
[6] = curve of first compound, second compound 3.16 µM
[7] = curve of first compound, second compound 10 µM
[8] = second compound 0.1 µM, first compound 0.01 µM
[9] = second compound 0.1 µM, first compound 0.0316 µM
[10] = second compound 0.1 µM, first compound 0.1 µM
[11] = second compound 0.1 µM, first compound 0.316 µM
[12] = second compound 0.1 µM, first compound 1 µM
[13] = second compound 0.1 µM, first compound 3.16 µM
[14] = second compound 0.316 µM, first compound 0.01 µM
[15] = second compound 0.316 µM, first compound 0.0316 µM
[16] = second compound 0.316 µM, first compound 0.1 µM
[17] = second compound 0.316 µM, first compound 0.316 µM
[18] = second compound 0.316 µM, first compound 1 µM
[19] = second compound 0.316 µM, first compound 3.16 µM
[20] = second compound 1 µM, first compound 0.01 µM
[21] = second compound 1 µM, first compound 0.0316 µM
[22] = second compound 1 µM, first compound 0.1 µM
[23] = second compound 1 µM, first compound 0.316 µM
[24] = second compound 1 µM, first compound 1 µM
[25] = second compound 1 µM, first compound 3.16 µM
[26] = second compound 3.16 µM, first compound 0.01 µM
[27] = second compound 3.16 µM, first compound 0.0316 µM
[28] = second compound 3.16 µM, first compound 0.1 µM
[29] = second compound 3.16 µM, first compound 0.316 µM
[30] = second compound 3.16 µM, first compound 1 µM
[31] = second compound 3.16 µM, first compound 3.16 µM
[32] = second compound 10 µM, first compound 0.01 µM
[33] = second compound 10 µM, first compound 0.0316 µM
[34] = second compound 10 µM, first compound 0.1 µM
[35] = second compound 10 µM, first compound 0.316 µM
[36] = second compound 10 µM, first compound 1 µM
[37] = second compound 10 µM, first compound 3.16 µM
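Also: viability read after seven days of drug exposure.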

SMILES | IC50 [1] | IC50 [2] | IC50 [3] [nM] | IC50 [4] [nM] | IC50 [5] [nM] | IC50 [6] [nM] | IC50 [7] [nM] | viability, T/C [8] [%] | viability, T/C [9] [%] | viability, T/C [10] [%] | viability, T/C [11] [%] | viability, T/C [12] [%] | viability, T/C [15] [%] | viability, T/C [16] [%] | viability, T/C [21] [%] | viability, T/C [22] [%] | viability, T/C [27] [%] | viability, T/C [28] [%] | viability, T/C [33] [%] | viability, T/C [34] [%] | further results
C=CC(=O)N1CCN(c2nc(OCC3CCCN3C)nc3c2CCN(c2cccc4cccc(C)c24)C3)CC1CC#N (stereo not given) | 1.71 µM [middle of 5 runs] | 1.82 µM [middle of 6 runs] | – | – | – | – | – | – | – | – | – | – | – | – | – | – | – | – | – | – | –
COc1cc2nc(C)nc(NC(C)c3cc(N)cc(C(F)(F)F)c3)c2cc1OC1CCOC1 (stereo not given) | > 10000 nM | > 10000 nM | – | – | – | – | – | – | – | – | – | – | – | – | – | – | – | – | – | – | viability, T/C (compound 0.1 µM): 87.8% [middle of 17 runs]
CC(=O)OC12COC1CC(O)C1(C)C(=O)C(O)C3=C(C)C(OC(=O)C(O)C(NC(=O)OC(C)(C)C)c4ccccc4)CC(O)(C(OC(=O)c4ccccc4)C21)C3(C)C (stereo not given) + C=CC(=O)N1CCN(c2nc(=O)n(-c3c(C)ccnc3C(C)C)c3nc(-c4c(O)cccc4F)c(F)cc23)C(C)C1 | – | – | < 10 | < 10 | < 10 | < 10 | < 10 | 21.5 | 15.5 | 15.1 | 15.4 | 15.7 | 13.3 | 11.5 | 10.9 | 10.9 | 10.9 | 6.69 | 13.1 | 9.39 | viability, T/C [13]: 17.4%; viability, T/C [14]: 22.5%; viability, T/C [17]: 12.6%; viability, T/C [18]: 13.6%; viability, T/C [19]: 20%; viability, T/C [20]: 15%; viability, T/C [23]: 12%; viability, T/C [24]: 11.9%; viability, T/C [25]: 12.1%; viability, T/C [26]: 17.5%; viability, T/C [29]: 7.49%; viability, T/C [30]: 11.8%; viability, T/C [31]: 16.2%; viability, T/C [32]: 20.7%; viability, T/C [35]: 9.36%; viability, T/C [36]: 12.5%; viability, T/C [37]: 12.7%
CN(C)C/C=C/C(=O)Nc1cc2c(Nc3ccc(F)c(Cl)c3)ncnc2cc1O[C@H]1CCOC1 + C=CC(=O)N1CCN(c2nc(=O)n(-c3c(C)ccnc3C(C)C)c3nc(-c4c(O)cccc4F)c(F)cc23)C(C)C1 | – | – | > 100 | > 100 | > 100 | > 100 | 75.8 | 97.2 | 98.6 | 80.5 | – | – | 90.6 | 76.7 | 85.2 | 71 | 59.4 | 69.2 | 51.9 | 49.7 | viability, T/C (second compound 0.1 µM, first compound 0.000316 µM): 124%; viability, T/C (second compound 0.1 µM, first compound 0.001 µM): 118%; viability, T/C (second compound 0.1 µM, first compound 0.00316 µM): 93.8%; viability, T/C (second compound 0.316 µM, first compound 0.000316 µM): 133%; viability, T/C (second compound 0.316 µM, first compound 0.001 µM): 134%; viability, T/C (second compound 0.316 µM, first compound 0.00316 µM): 103%; viability, T/C [14]: 88.5%; viability, T/C (second compound 1 µM, first compound 0.000316 µM): 120%; viability, T/C (second compound 1 µM, first compound 0.001 µM): 120%; viability, T/C (second compound 1 µM, first compound 0.00316 µM): 99.8%; viability, T/C [20]: 84.9%; viability, T/C (second compound 3.16 µM, first compound 0.000316 µM): 99.4%; viability, T/C (second compound 3.16 µM, first compound 0.001 µM): 104%; viability, T/C (second compound 3.16 µM, first compound 0.00316 µM): 89.5%; viability, T/C [26]: 77%; viability, T/C (second compound 10 µM, first compound 0.000316 µM): 67.4%; viability, T/C (second compound 10 µM, first compound 0.001 µM): 72.4%; viability, T/C (second compound 10 µM, first compound 0.00316 µM): 55.7%; viability, T/C [32]: 57.5%
O=C(c1cc(Cc2n[nH]c(=O)c3ccccc23)ccc1F)N1CCN(C(=O)C2CC2)CC1 + C=CC(=O)N1CCN(c2nc(=O)n(-c3c(C)ccnc3C(C)C)c3nc(-c4c(O)cccc4F)c(F)cc23)C(C)C1 | – | – | > 10000 | > 10000 | > 10000 | > 10000 | > 10000 | – | 115 | 120 | 97.1 | 89.6 | 122 | 110 | 122 | 115 | 99.1 | 109 | 63.5 | 61.9 | viability, T/C [13]: 94.2%; viability, T/C (second compound 0.1 µM, first compound 10 µM): 64.8%; viability, T/C [17]: 116%; viability, T/C [18]: 103%; viability, T/C [19]: 93.1%; viability, T/C (second compound 0.316 µM, first compound 10 µM): 77.7%; viability, T/C [23]: 122%; viability, T/C [24]: 103%; viability, T/C [25]: 92.9%; viability, T/C (second compound 1 µM, first compound 10 µM): 73.5%; viability, T/C [29]: 93.9%; viability, T/C [30]: 102%; viability, T/C [31]: 92.6%; viability, T/C (second compound 3.16 µM, first compound 10 µM): 68.9%; viability, T/C [35]: 65.6%; viability, T/C [36]: 66.2%; viability, T/C [37]: 68.9%; viability, T/C (second compound 10 µM, first compound 10 µM): 43.4%
